Paper PMC10819888, “Benzimidazole-Based Derivatives as Apoptotic Antiproliferative Agents: Design, Synthesis, Docking, and Mechanistic Studies” (Molecules, 2024)

Experiments:
CCRF-CEM = experiment: NCI-60 five-dose assay; assay type: cell-based, human; settings: CCRF-CEM (Leukemia), 48 h
SR = experiment: NCI-60 five-dose assay; assay type: cell-based, human; settings: SR (Leukemia), 48 h
A549/ATCC = experiment: NCI-60 five-dose assay; assay type: cell-based, human; settings: A549/ATCC (Non-Small Cell Lung Cancer), 48 h
NCI-H522 = experiment: NCI-60 five-dose assay; assay type: cell-based, human; settings: NCI-H522 (Non-Small Cell Lung Cancer), 48 h
HCT-116 = experiment: NCI-60 five-dose assay; assay type: cell-based, human; settings: HCT-116 (Colon Cancer), 48 h
HT29 = experiment: NCI-60 five-dose assay; assay type: cell-based, human; settings: HT29 (Colon Cancer), 48 h
SNB-75 = experiment: NCI-60 five-dose assay; assay type: cell-based, human; settings: SNB-75 (CNS Cancer), 48 h
SK-MEL-28 = experiment: NCI-60 five-dose assay; assay type: cell-based, human; settings: SK-MEL-28 (Melanoma), 48 h
786-0 = experiment: NCI-60 five-dose assay; assay type: cell-based, human; settings: 786-0 (Renal Cancer), 48 h
A498 = experiment: NCI-60 five-dose assay; assay type: cell-based, human; settings: A498 (Renal Cancer), 48 h
CAKI-1 = experiment: NCI-60 five-dose assay; assay type: cell-based, human; settings: CAKI-1 (Renal Cancer), 48 h
TK-10 = experiment: NCI-60 five-dose assay; assay type: cell-based, human; settings: TK-10 (Renal Cancer), 48 h
PC-3 = experiment: NCI-60 five-dose assay; assay type: cell-based, human; settings: PC-3 (Prostate Cancer), 48 h
DU-145 = experiment: NCI-60 five-dose assay; assay type: cell-based, human; settings: DU-145 (Prostate Cancer), 48 h
MCF7 = experiment: NCI-60 five-dose assay; assay type: cell-based, human; settings: MCF7 (Breast Cancer), 48 h
MDA-MB-231 = experiment: NCI-60 five-dose assay; assay type: cell-based, human; settings: MDA-MB-231 (Breast Cancer), 48 h
MDA-MB-468 = experiment: NCI-60 five-dose assay; assay type: cell-based, human; settings: MDA-MB-468 (Breast Cancer), 48 h
[1] = system: Non-Small Cell Lung Cancer subpanel; experiment: NCI-60 five-dose assay, subpanel; assay type: cell-based, human
Colon Cancer subpanel = experiment: NCI-60 five-dose assay, subpanel; assay type: cell-based, human
CNS Cancer subpanel = experiment: NCI-60 five-dose assay, subpanel; assay type: cell-based, human
BRAF^V600E = experiment: biochemical
[2] = Homo sapiens, read-out: GI50 Conc. per Cell Line
[3] = Homo sapiens, read-out: LC50 (the source's name)

Chain of BRAF^V600E (P28028 whole entry V585E): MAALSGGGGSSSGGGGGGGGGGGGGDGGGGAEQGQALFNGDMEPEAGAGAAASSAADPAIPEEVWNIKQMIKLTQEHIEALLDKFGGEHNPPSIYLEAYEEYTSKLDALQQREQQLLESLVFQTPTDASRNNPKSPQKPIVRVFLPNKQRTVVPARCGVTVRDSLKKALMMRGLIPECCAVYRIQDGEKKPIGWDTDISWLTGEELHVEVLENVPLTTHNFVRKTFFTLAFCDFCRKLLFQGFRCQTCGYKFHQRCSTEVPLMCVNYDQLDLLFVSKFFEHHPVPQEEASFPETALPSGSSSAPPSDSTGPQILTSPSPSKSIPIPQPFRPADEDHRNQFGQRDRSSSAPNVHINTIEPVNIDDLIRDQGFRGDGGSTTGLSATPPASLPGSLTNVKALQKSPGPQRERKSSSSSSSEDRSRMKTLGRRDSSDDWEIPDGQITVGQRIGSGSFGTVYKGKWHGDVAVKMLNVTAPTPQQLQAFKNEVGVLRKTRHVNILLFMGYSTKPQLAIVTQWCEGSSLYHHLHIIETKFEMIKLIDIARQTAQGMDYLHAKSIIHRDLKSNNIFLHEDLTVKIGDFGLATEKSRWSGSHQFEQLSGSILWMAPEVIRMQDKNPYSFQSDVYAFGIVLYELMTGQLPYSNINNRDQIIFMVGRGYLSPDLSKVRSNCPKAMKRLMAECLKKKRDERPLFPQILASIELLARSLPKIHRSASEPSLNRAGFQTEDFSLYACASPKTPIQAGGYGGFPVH

`O=C(NN=Cc1ccc(Cl)cc1)c1ccc2[nH]c(-c3ccc(Cl)cc3)nc2c1` [Compound 4e, N′-(4-Chlorobenzylidene)-2-(4-chlorophenyl)-1H-benzimidazole-5-carbohydrazide] was tested, and the TGI (CCRF-CEM) was 9.03 µM, the GI50 (CCRF-CEM; [2]) was 1.43 µM and the CC50 (CCRF-CEM; [3]) was 65.8 µM. For the same molecule, the GI50 (SR; [2]) was 1.01 µM, the CC50 (SR; [3]) was 37 µM and the TGI (SR) was 3.95 µM. It also gave a TGI (A549/ATCC) of 4.53 µM, a GI50 (A549/ATCC; [2]) of 2.16 µM and a CC50 (A549/ATCC; [3]) of 9.52 µM. The GI50 (NCI-H522; [2]) was 2.24 µM, the CC50 (NCI-H522; [3]) was 77.9 µM and the TGI (NCI-H522) was 5.85 µM. For the same molecule, the TGI (HCT-116) was 3.51 µM, the GI50 (HCT-116; [2]) was 1.45 µM and the CC50 (HCT-116; [3]) was 8.52 µM. For the same molecule, the TGI (HT29) was 5.47 µM, the GI50 (HT29; Homo sapiens, HT-29, read-out: GI50 Conc. per Cell Line) was 1.97 µM and the CC50 (HT29; Homo sapiens, HT-29, read-out: LC50 (the source's name)) was 44.1 µM. The GI50 (SNB-75; [2]) was 1.59 µM, the CC50 (SNB-75; [3]) was 8.22 µM and the TGI (SNB-75) was 3.62 µM. It also gave a GI50 (SK-MEL-28; [2]) of 1.58 µM, a CC50 (SK-MEL-28; [3]) of 5.86 µM and a TGI (SK-MEL-28) of 3.04 µM. It also gave a TGI (786-0) of 3.48 µM, a GI50 (786-0; [2]) of 1.79 µM and a CC50 (786-0; [3]) of 6.76 µM. For the same molecule, the TGI (A498) was 4.94 µM, the GI50 (A498; [2]) was 1.74 µM and the CC50 (A498; [3]) was 19.6 µM. The TGI (CAKI-1) was 3.29 µM, the GI50 (CAKI-1; [2]) was 1.7 µM and the CC50 (CAKI-1; [3]) was 6.37 µM. The GI50 (TK-10; [2]) was 2.06 µM, the CC50 (TK-10; [3]) was 8.98 µM and the TGI (TK-10) was 4.30 µM. For the same molecule, the LC50 (PC-3; Homo sapiens) was 7.05 µM, the GI50 (PC-3; [2]) was 1.55 µM and the TGI (PC-3) was 3.30 µM. It also gave a TGI (DU-145) of 3.44 µM, a GI50 (DU-145; [2]) of 1.76 µM and a CC50 (DU-145; [3]) of 6.7 µM. For the same molecule, the GI50 (MCF7; [2]) was 1.15 µM, the CC50 (MCF7; [3]) was 5.73 µM and the TGI (MCF7) was 2.56 µM. The GI50 (MDA-MB-231; [2]) was 1.85 µM, the CC50 (MDA-MB-231; [3]) was 7.67 µM and the TGI (MDA-MB-231) was 3.77 µM. The LC50 (concentration killing 50% of cells) (MDA-MB-468; Homo sapiens) was 6.36 µM, the GI50 (MDA-MB-468; [2]) was 1.64 µM and the TGI (MDA-MB-468) was 3.23 µM. The GI50 ([1]; Homo sapiens, Non-Small Cell Lung Cancer, average sensitivity of all subpanel cell lines, read-out: GI50 Subpanel MID b) was 1.9 µM, the “GI50 Selectivity Ratio (MID a/MID b)” value ([1]; Non-Small Cell Lung Cancer subpanel) was 0.94 and the “GI50 Selectivity Ratio (MID a/MID b)” value (Colon Cancer subpanel; Colon Cancer subpanel) was 1.04. For the same molecule, the GI50 (Colon Cancer subpanel; Homo sapiens, Colon Cancer, average sensitivity of all subpanel cell lines, read-out: GI50 Subpanel MID b) was 1.72 µM, the “GI50 Selectivity Ratio (MID a/MID b)” value (CNS Cancer subpanel; CNS Cancer subpanel) was 0.92 and the GI50 (CNS Cancer subpanel; Homo sapiens, CNS Cancer, average sensitivity of all subpanel cell lines, read-out: GI50 Subpanel MID b) was 1.94 µM. The IC50 (BRAF^V600E) was 0.2 ± 0.02 µM.

Work on `COc1cc(/C=N/NC(=O)c2ccc3[nH]c(-c4ccc(Cl)cc4)nc3c2)cc(OC)c1OC` [Compound 4h, N′-(3,4,5-Trimethoxybenzylidene)-2-(4-chlorophenyl)-1H-benzimidazole-5 carbohydrazide] yielded an IC50 (BRAF^V600E) of 0.82 ± 0.06 µM.
